Assays:
[1] = target: Interleukin-1 receptor-associated kinase 3 (Homo sapiens) (UniProt Q9Y616); conditions: Compound concentration 1000.0 nM
[2] = target: Serine/threonine-protein kinase 36 (Homo sapiens) (UniProt Q9NRP7); conditions: Compound concentration 1000.0 nM
[3] = target: Dual specificity mitogen-activated protein kinase kinase 4 (Homo sapiens) (UniProt P45985); conditions: Compound concentration 1000.0 nM
[4] = target: Protein kinase C eta type (Homo sapiens) (UniProt P24723); conditions: Compound concentration 1000.0 nM
[5] = target: Calcium/calmodulin-dependent protein kinase kinase 2 (Homo sapiens) (UniProt Q96RR4); conditions: Compound concentration 1000.0 nM
[6] = target: STE20/SPS1-related proline-alanine-rich protein kinase (Homo sapiens) (UniProt Q9UEW8); conditions: Compound concentration 1000.0 nM
[7] = target: Ephrin type-B receptor 3 (Homo sapiens) (UniProt P54753); conditions: Compound concentration 1000.0 nM
Ephrin type-B receptor 3 (Homo sapiens), sequence (P54753 whole entry): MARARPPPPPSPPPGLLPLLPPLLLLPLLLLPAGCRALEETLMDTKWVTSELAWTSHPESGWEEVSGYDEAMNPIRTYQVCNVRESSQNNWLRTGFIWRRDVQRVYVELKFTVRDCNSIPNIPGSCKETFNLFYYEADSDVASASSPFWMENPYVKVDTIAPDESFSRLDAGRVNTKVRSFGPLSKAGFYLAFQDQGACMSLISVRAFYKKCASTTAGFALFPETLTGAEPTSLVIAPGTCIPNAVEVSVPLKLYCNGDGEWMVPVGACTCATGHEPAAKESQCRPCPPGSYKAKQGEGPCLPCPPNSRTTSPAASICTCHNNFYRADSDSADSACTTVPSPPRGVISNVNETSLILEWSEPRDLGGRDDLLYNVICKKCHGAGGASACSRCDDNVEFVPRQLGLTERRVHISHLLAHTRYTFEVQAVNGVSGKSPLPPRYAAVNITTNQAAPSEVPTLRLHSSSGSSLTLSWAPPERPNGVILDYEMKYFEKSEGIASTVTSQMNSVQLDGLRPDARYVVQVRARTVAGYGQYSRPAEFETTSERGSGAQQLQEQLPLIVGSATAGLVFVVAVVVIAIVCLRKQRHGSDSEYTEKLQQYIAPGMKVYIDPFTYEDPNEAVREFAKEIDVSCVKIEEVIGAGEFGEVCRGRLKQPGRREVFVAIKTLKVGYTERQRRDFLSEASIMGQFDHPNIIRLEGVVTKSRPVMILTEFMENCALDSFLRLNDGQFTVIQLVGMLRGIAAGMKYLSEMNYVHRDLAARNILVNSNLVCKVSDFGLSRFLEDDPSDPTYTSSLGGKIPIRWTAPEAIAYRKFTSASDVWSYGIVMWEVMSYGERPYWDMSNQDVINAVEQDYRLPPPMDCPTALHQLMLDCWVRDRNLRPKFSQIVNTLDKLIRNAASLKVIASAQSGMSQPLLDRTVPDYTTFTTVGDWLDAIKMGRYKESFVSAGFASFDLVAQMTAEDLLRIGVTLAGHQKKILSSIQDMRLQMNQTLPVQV

[8] = target: Ribosomal protein S6 kinase alpha-3 (Homo sapiens) (UniProt P51812); conditions: Compound concentration 1000.0 nM
[9] = target: Serine/threonine-protein kinase N1 (Homo sapiens) (UniProt Q16512); conditions: Compound concentration 1000.0 nM
[10] = target: Homeodomain-interacting protein kinase 4 (Homo sapiens) (UniProt Q8NE63); conditions: Compound concentration 1000.0 nM
[11] = target: Serine/threonine-protein kinase pim-3 (Homo sapiens) (UniProt Q86V86); conditions: Compound concentration 1000.0 nM
[12] = target: Hormonally up-regulated neu tumor-associated kinase (Homo sapiens) (UniProt P57058); conditions: Compound concentration 1000.0 nM
[13] = target: Serine/threonine-protein kinase PAK 6 (Homo sapiens) (UniProt Q9NQU5); conditions: Compound concentration 1000.0 nM
[14] = system: Tyrosine-protein kinase ABL1 (Homo sapiens), P00519 [T315I]; conditions: Compound concentration 1000.0 nM
[15] = target: Protein-tyrosine kinase 2-beta (Homo sapiens) (UniProt Q14289); conditions: Compound concentration 1000.0 nM
[16] = target: Protein kinase C theta type (Homo sapiens) (UniProt Q04759); conditions: Compound concentration 1000.0 nM
[17] = target: Serine/threonine-protein kinase PLK4 (Homo sapiens) (UniProt O00444); conditions: Compound concentration 1000.0 nM
Serine/threonine-protein kinase PLK4 (Homo sapiens), sequence (O00444 whole entry, the tested form may be a part): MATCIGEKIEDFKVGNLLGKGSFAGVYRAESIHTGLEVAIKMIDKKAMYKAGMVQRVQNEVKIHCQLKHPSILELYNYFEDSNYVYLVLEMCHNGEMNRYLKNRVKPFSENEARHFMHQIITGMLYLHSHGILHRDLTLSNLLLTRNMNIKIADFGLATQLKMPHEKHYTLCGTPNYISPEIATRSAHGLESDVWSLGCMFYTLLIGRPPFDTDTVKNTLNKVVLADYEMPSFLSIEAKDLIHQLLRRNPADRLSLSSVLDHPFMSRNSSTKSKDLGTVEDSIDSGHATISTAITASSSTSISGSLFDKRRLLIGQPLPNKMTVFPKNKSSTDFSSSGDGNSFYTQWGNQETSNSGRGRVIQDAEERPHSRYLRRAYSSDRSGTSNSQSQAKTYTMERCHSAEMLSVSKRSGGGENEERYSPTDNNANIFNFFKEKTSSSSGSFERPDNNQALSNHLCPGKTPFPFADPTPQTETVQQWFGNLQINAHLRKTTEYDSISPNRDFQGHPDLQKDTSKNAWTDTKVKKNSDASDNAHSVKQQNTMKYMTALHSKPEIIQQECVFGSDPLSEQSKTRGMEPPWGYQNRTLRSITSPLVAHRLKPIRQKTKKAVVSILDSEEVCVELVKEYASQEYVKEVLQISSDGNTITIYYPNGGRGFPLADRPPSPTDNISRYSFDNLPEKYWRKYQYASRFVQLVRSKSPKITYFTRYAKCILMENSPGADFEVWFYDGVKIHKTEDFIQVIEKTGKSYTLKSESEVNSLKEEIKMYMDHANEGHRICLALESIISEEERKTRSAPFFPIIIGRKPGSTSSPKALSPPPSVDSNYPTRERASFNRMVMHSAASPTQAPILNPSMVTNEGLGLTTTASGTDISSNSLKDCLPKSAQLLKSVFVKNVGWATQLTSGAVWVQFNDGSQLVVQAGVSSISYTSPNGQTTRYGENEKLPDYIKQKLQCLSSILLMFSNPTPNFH

[18] = target: LIM domain kinase 2 (Homo sapiens) (UniProt P53671); conditions: Compound concentration 1000.0 nM
[19] = target: Ephrin type-A receptor 1 (Homo sapiens) (UniProt P21709); conditions: Compound concentration 1000.0 nM
[20] = target: Dual specificity protein kinase CLK4 (Homo sapiens) (UniProt Q9HAZ1); conditions: Compound concentration 1000.0 nM
[21] = target: Fibroblast growth factor receptor 2 (Homo sapiens) (UniProt P21802); conditions: Compound concentration 1000.0 nM
[22] = system: Receptor-type tyrosine-protein kinase FLT3 (Homo sapiens), P36888 [N841I]; conditions: Compound concentration 1000.0 nM
[23] = target: Serine/threonine-protein kinase 38-like (Homo sapiens) (UniProt Q9Y2H1); conditions: Compound concentration 1000.0 nM
[24] = target: Discoidin domain-containing receptor 2 (Homo sapiens) (UniProt Q16832); conditions: Compound concentration 1000.0 nM
[25] = system: Receptor-type tyrosine-protein kinase FLT3 (Homo sapiens), P36888 [D835V]; conditions: Compound concentration 1000.0 nM
[26] = target: Phosphatidylinositol 3-kinase catalytic subunit type 3 (Homo sapiens) (UniProt Q8NEB9); conditions: Compound concentration 1000.0 nM
Phosphatidylinositol 3-kinase catalytic subunit type 3 (Homo sapiens), sequence (Q8NEB9 whole entry): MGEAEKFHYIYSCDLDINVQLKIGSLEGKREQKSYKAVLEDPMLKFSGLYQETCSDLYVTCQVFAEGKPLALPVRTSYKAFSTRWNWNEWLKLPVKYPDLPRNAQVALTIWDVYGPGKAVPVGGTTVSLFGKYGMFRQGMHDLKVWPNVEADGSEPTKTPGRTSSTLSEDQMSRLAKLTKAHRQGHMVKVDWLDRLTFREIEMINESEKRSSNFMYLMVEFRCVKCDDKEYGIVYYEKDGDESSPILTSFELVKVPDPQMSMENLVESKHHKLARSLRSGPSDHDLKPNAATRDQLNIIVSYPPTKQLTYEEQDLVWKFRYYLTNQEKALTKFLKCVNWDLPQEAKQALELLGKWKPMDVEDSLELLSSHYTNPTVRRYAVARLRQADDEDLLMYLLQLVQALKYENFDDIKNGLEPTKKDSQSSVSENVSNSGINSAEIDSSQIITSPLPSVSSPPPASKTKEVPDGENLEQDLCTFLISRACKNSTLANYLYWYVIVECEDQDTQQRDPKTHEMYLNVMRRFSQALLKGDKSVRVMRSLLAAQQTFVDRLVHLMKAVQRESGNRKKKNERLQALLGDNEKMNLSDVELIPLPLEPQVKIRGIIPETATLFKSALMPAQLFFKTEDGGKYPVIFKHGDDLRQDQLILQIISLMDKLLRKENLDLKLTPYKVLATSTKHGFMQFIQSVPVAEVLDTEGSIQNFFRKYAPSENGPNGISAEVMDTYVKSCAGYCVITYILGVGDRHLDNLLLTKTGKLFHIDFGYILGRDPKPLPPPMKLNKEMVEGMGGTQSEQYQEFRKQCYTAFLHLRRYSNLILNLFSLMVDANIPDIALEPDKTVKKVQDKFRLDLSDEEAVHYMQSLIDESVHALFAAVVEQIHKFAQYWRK

[27] = target: Ephrin type-B receptor 6 (Homo sapiens) (UniProt O15197); conditions: Compound concentration 1000.0 nM
[28] = target: Rho-associated protein kinase 2 (Homo sapiens) (UniProt O75116); conditions: Compound concentration 1000.0 nM
[29] = target: Platelet-derived growth factor receptor alpha (Homo sapiens) (UniProt P16234); conditions: Compound concentration 1000.0 nM
[30] = target: Tyrosine-protein kinase JAK2 (Homo sapiens) (UniProt O60674); conditions: Compound concentration 1000.0 nM
Tyrosine-protein kinase JAK2 (Homo sapiens), sequence (O60674 whole entry): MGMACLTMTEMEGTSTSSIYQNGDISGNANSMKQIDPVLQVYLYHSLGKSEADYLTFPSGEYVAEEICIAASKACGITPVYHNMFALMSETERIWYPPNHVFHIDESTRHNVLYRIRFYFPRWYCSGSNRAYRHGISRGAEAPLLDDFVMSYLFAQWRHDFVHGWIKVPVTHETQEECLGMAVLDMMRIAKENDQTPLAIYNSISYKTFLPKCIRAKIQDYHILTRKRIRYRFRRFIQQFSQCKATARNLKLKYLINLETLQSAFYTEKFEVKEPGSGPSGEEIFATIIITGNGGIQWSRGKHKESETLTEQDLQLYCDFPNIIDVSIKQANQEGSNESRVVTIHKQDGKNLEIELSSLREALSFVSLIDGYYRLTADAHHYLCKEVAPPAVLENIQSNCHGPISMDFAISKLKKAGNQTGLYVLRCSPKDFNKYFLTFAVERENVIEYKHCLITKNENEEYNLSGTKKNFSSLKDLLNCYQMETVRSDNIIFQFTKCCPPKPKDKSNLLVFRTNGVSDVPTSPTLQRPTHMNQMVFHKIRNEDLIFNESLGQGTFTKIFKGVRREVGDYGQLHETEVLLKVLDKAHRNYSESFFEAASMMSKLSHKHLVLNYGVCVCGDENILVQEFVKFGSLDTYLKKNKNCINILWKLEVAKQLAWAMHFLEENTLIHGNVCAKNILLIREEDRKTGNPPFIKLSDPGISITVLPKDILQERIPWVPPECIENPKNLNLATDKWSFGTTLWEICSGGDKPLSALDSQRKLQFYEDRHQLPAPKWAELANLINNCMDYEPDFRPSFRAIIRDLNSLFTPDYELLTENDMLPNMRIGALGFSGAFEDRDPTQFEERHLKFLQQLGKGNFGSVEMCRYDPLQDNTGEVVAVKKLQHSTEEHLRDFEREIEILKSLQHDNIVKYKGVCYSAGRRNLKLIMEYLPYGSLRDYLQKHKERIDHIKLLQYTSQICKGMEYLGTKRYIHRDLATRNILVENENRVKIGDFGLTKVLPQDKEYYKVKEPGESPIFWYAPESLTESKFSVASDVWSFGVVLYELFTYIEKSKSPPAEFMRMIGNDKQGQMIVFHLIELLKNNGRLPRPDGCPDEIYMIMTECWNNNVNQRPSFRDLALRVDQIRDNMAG

[31] = target: Microtubule-associated serine/threonine-protein kinase 1 (Homo sapiens) (UniProt Q9Y2H9); conditions: Compound concentration 1000.0 nM
[32] = system: Tyrosine-protein kinase ABL1 (Homo sapiens), P00519 [Y253F]; conditions: Compound concentration 1000.0 nM
[33] = target: Dual specificity tyrosine-phosphorylation-regulated kinase 2 (Homo sapiens) (UniProt Q92630); conditions: Compound concentration 1000.0 nM
[34] = organism: Rattus norvegicus; conditions: Compound concentration 10.0 uM
[35] = target: Ribosomal protein S6 kinase alpha-4 (Homo sapiens) (UniProt O75676); conditions: Compound concentration 1000.0 nM
[36] = target: 3-phosphoinositide-dependent protein kinase 1 (Homo sapiens) (UniProt O15530); conditions: Compound concentration 1000.0 nM
[37] = target: Cyclin-dependent kinase-like 5 (Homo sapiens) (UniProt O76039); conditions: Compound concentration 1000.0 nM
[38] = target: RAF proto-oncogene serine/threonine-protein kinase (Homo sapiens) (UniProt P04049); conditions: Compound concentration 1000.0 nM
[39] = target: Dual specificity protein kinase CLK2 (Homo sapiens) (UniProt P49760); conditions: Compound concentration 1000.0 nM
[40] = target: Muscarinic acetylcholine receptor M3 (Homo sapiens) (UniProt P20309); conditions: Compound concentration 10.0 uM
[41] = target: Serine/threonine-protein kinase PAK 2 (Homo sapiens) (UniProt Q13177); conditions: Compound concentration 1000.0 nM
[42] = target: Atypical kinase COQ8B, mitochondrial (Homo sapiens) (UniProt Q96D53); conditions: Compound concentration 1000.0 nM
[43] = target: Testis-specific serine/threonine-protein kinase 1 (Homo sapiens) (UniProt Q9BXA7); conditions: Compound concentration 1000.0 nM
Testis-specific serine/threonine-protein kinase 1 (Homo sapiens), sequence (Q9BXA7 whole entry): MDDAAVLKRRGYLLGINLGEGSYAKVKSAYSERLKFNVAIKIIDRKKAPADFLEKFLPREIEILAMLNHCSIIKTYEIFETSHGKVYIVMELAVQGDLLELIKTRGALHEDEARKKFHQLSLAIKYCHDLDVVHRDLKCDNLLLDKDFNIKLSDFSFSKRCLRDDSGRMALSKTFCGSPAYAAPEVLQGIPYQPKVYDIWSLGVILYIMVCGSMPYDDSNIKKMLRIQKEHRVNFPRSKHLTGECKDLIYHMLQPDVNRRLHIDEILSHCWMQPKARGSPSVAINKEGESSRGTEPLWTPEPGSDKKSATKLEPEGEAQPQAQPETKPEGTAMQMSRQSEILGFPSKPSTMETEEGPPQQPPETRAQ

[44] = target: Epidermal growth factor receptor (Homo sapiens) (UniProt P00533); conditions: Compound concentration 1000.0 nM
[45] = target: Tyrosine-protein kinase JAK1 (Homo sapiens) (UniProt P23458); conditions: Compound concentration 1000.0 nM
[46] = target: Tyrosine-protein kinase Fgr (Homo sapiens) (UniProt P09769); conditions: Compound concentration 1000.0 nM

Interleukin-1 receptor-associated kinase 3 (Homo sapiens), sequence (Q9Y616 whole entry): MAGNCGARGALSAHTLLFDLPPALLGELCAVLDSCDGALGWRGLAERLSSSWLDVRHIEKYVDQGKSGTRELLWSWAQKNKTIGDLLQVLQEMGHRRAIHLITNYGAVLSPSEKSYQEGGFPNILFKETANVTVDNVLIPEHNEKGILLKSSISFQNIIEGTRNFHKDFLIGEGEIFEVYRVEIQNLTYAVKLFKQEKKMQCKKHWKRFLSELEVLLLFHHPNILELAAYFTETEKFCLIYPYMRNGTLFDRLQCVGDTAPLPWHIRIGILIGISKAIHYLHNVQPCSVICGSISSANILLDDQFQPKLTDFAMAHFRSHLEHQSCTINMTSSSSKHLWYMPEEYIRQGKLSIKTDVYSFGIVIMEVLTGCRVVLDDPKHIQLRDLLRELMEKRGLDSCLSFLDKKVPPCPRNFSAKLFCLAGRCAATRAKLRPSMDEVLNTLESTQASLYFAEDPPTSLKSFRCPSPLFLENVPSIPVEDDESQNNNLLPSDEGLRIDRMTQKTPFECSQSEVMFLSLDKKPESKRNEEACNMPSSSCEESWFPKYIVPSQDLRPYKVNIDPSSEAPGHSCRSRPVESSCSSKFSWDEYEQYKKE

O=C(O)[C@@H]1[C@@H](Cn2nnc3ccccc3c2=O)CC[C@H]1C(=O)c1ccc(OCCC2CCOCC2)cc1 [BAY-694]
inactive: residual activity [1] 100% | residual activity [2] 91% | residual activity [3] 100% | residual activity [4] 100% | residual activity [5] 100% | residual activity [6] 96% | residual activity [7] 100% | residual activity [8] 85% | residual activity [9] 97% | residual activity [10] 100% | residual activity [11] 84% | residual activity [12] 100% | residual activity [13] 99% | residual activity [14] 100% | residual activity [15] 100% | residual activity [16] 85% | residual activity [17] 83% | residual activity [18] 100% | residual activity [19] 100% | residual activity [20] 100% | residual activity [21] 100% | residual activity [22] 98% | residual activity [23] 100% | residual activity [24] 100% | residual activity [25] 93% | residual activity [26] 96% | residual activity [27] 100% | residual activity [28] 100% | residual activity [29] 100% | residual activity [30] 74% | residual activity [31] 100% | residual activity [32] 100% | residual activity [33] 90% | inhibition [34] 13.4% | residual activity [35] 85% | residual activity [36] 80% | residual activity [37] 96% | residual activity [38] 100% | residual activity [39] 100% | inhibition [40] 5.09% | residual activity [41] 82% | residual activity [42] 64% | residual activity [43] 100% | residual activity [44] 90% | residual activity [45] 79% | residual activity [46] 100%

O=C(O)[C@H]1[C@H](Cn2nnc3ccccc3c2=O)CC[C@@H]1C(=O)c1ccc(OCCC2CCOCC2)cc1 [BAY-7598]
inactive: residual activity [1] 77% | residual activity [2] 100% | residual activity [3] 97% | residual activity [4] 89% | residual activity [5] 90% | residual activity [6] 95% | residual activity [7] 89% | residual activity [8] 83% | residual activity [9] 88% | residual activity [10] 100% | residual activity [11] 86% | residual activity [12] 71% | residual activity [13] 100% | residual activity [14] 100% | residual activity [15] 75% | residual activity [16] 80% | residual activity [17] 97% | residual activity [18] 90% | residual activity [19] 100% | residual activity [20] 100% | residual activity [21] 100% | residual activity [22] 85% | residual activity [23] 96% | residual activity [24] 100% | residual activity [25] 92% | residual activity [26] 93% | residual activity [27] 89% | residual activity [28] 80% | residual activity [29] 100% | residual activity [30] 75% | residual activity [31] 98% | residual activity [32] 100% | residual activity [33] 93% | inhibition [34] 9.67% | residual activity [35] 97% | residual activity [36] 74% | residual activity [37] 85% | residual activity [38] 91% | residual activity [39] 100% | inhibition [40] -7.32% | residual activity [41] 69% | residual activity [42] 87% | residual activity [43] 73% | residual activity [44] 88% | residual activity [45] 88% | residual activity [46] 86%
